For this assay, the target named is T1, Bcl-2 protein (Recombinant Human Bcl-2 Protein) (Homo sapiens, UniProt P10415).
T1 construct: purchased Novus NBP2-34889
Description: Binding evaluation of mixture library compounds to Bcl-2 using AS-MS (affinity selection mass spectrometry). Summed up: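 Affinity selection MS: Bcl-2 20 μM + 1200-cpd mixture, […]/cpd, Tris pH 7.4 buffer w/ Tween-20, DTT; 1 h 23° C dark; P-2 spin SEC; MeCN/MeOH extraction; RP LC/MS. ASMS Ratio(%) = (A−C)/B×100.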

T1 sequence (P10415 whole entry): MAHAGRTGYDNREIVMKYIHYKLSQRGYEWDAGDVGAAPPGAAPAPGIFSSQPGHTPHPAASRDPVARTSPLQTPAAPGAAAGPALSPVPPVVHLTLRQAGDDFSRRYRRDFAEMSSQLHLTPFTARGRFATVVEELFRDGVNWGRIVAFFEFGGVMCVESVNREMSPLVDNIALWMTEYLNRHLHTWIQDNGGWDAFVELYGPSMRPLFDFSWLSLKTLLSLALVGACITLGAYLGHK

Consider `CCOc1cccc(-c2ccc(C(=O)N3CCN(c4ccc(C(=O)NS(=O)(=O)CCC(F)(F)F)cc4)CC3)c3ccccc23)c1` [B2N035-01, 4-[4-[4-(3-Ethoxyphenyl)naphthalene-1-carbonyl]piperazin-1-yl]-N-(3,3,3-trifluoropropylsulfonyl)benzamide], for which the “ASMS ratio (%)” value was found to be 0.0% (n = 1) and 0.0% (n = 2).

Consider `CCOc1cncc(-c2ccc(C(=O)N3CCN(c4ccc(C(=O)NS(=O)(=O)CCC(F)(F)F)cc4)CC3)c3ccccc23)c1` [B2N036-01, 4-[4-[4-(5-Ethoxypyridin-3-yl)naphthalene-1-carbonyl]piperazin-1-yl]-N-(3,3,3-trifluoropropylsulfonyl)benzamide], for which the “ASMS ratio (%)” value is on record as 0.0% (n = 1) and 0.4% (n = 2).

For the compound `CCOc1cccc(-c2cc(C(=O)N3CCN(c4ccc(C(=O)NS(=O)(=O)CCC(F)(F)F)cc4)CC3)cc(C(C)(C)C)c2)c1` [B2N037-01, 4-[4-[3-tert-Butyl-5-(3-ethoxyphenyl)benzoyl]piperazin-1-yl]-N-(3,3,3-trifluoropropylsulfonyl)benzamide], the “ASMS ratio (%)” value is listed as 0.0% (n = 1) and 0.0% (n = 2).

As to `CCOc1cncc(-c2cc(C(=O)N3CCN(c4ccc(C(=O)NS(=O)(=O)CCC(F)(F)F)cc4)CC3)cc(C(C)(C)C)c2)c1` [B2N038-01, 4-[4-[3-tert-Butyl-5-(5-ethoxypyridin-3-yl)benzoyl]piperazin-1-yl]-N-(3,3,3-trifluoropropylsulfonyl)benzamide], the “ASMS ratio (%)” value runs as follows: (n = 1) 0.0%; (n = 2) 0.0%.

In the case of `CCOc1cncc(-c2cc(C(=O)N3CCN(c4ccc(C(=O)NS(=O)(=O)CCC(F)(F)F)cc4)CC3)cc(C(F)(F)F)c2)c1` [B2N040-01, 4-[4-[3-(5-Ethoxypyridin-3-yl)-5-(trifluoromethyl)benzoyl]piperazin-1-yl]-N-(3,3,3-trifluoropropylsulfonyl)benzamide], the “ASMS ratio (%)” value runs as follows: (n = 1) 0.0%; (n = 2) 0.0%.

Regarding `CCOc1cncc(C#Cc2cc(C(=O)N3CCN(c4ccc(C(=O)NS(=O)(=O)CCC(F)(F)F)cc4)CC3)cc(C(F)(F)F)c2)c1` [B2N042-01, 4-[4-[3-[2-(5-Ethoxypyridin-3-yl)ethynyl]-5-(trifluoromethyl)benzoyl]piperazin-1-yl]-N-(3,3,3-trifluoropropylsulfonyl)benzamide], the “ASMS ratio (%)” value is reported as 0.0% (n = 1) and 0.0% (n = 2).

Turning to `CCOc1cccc(-c2cnn(-c3cc(C(=O)N4CCN(c5ccc(C(=O)NS(=O)(=O)CCC(F)(F)F)cc5)CC4)cc(C(F)(F)F)c3)c2)c1` [B2N043-01, 4-[4-[3-[4-(3-Ethoxyphenyl)pyrazol-1-yl]-5-(trifluoromethyl)benzoyl]piperazin-1-yl]-N-(3,3,3-trifluoropropylsulfonyl)benzamide], the “ASMS ratio (%)” value is recorded as −1.4% (n = 1) and 0.1% (n = 2).

In the case of `CCOc1cncc(-c2cnn(-c3cc(C(=O)N4CCN(c5ccc(C(=O)NS(=O)(=O)CCC(F)(F)F)cc5)CC4)cc(C(F)(F)F)c3)c2)c1` [B2N044-01, 4-[4-[3-[4-(5-Ethoxypyridin-3-yl)pyrazol-1-yl]-5-(trifluoromethyl)benzoyl]piperazin-1-yl]-N-(3,3,3-trifluoropropylsulfonyl)benzamide], the “ASMS ratio (%)” value (n = 1) came out at 0.2% and the “ASMS ratio (%)” value (n = 2) came to 1.4%.

Turning to `CCOc1cccc(-c2ccccc2CN2CCN(c3ccc(C(=O)NS(=O)(=O)CCC(F)(F)F)cc3)CC2)c1` [B2N045-01, 4-[4-[[2-(3-Ethoxyphenyl)phenyl]methyl]piperazin-1-yl]-N-(3,3,3-trifluoropropylsulfonyl)benzamide], the “ASMS ratio (%)” value runs as follows: (n = 1) 0.0%; (n = 2) 0.1%.

With `CCOc1cncc(-c2ccccc2CN2CCN(c3ccc(C(=O)NS(=O)(=O)CCC(F)(F)F)cc3)CC2)c1` [B2N046-01, 4-[4-[[2-(5-Ethoxypyridin-3-yl)phenyl]methyl]piperazin-1-yl]-N-(3,3,3-trifluoropropylsulfonyl)benzamide], the “ASMS ratio (%)” value (n = 1) is listed as 0.0% and the “ASMS ratio (%)” value (n = 2) is −1.2%.

`CCOc1cccc(-c2ccc(CN3CCN(c4ccc(C(=O)NS(=O)(=O)CCC(F)(F)F)cc4)CC3)cc2C)c1` [B2N047-01, 4-[4-[[4-(3-Ethoxyphenyl)-3-methylphenyl]methyl]piperazin-1-yl]-N-(3,3,3-trifluoropropylsulfonyl)benzamide]: the “ASMS ratio (%)” value was determined as 0.0% (n = 1) and 0.0% (n = 2).

On to `CCOc1cncc(-c2ccc(CN3CCN(c4ccc(C(=O)NS(=O)(=O)CCC(F)(F)F)cc4)CC3)cc2C)c1` [B2N048-01, 4-[4-[[4-(5-Ethoxypyridin-3-yl)-3-methylphenyl]methyl]piperazin-1-yl]-N-(3,3,3-trifluoropropylsulfonyl)benzamide], for which the “ASMS ratio (%)” value reads like this: (n = 1) 0.0%; (n = 2) −0.7%.

Turning to `CCOc1cccc(-c2ccc(CN3CCN(c4ccc(C(=O)NS(=O)(=O)CCC(F)(F)F)cc4)CC3)c(CC)c2)c1` [B2N049-01, 4-[4-[[4-(3-Ethoxyphenyl)-2-ethylphenyl]methyl]piperazin-1-yl]-N-(3,3,3-trifluoropropylsulfonyl)benzamide], the “ASMS ratio (%)” value by setting is: (n = 1) 0.0%; (n = 2) 0.0%.

As to `CCOc1cncc(-c2ccc(CN3CCN(c4ccc(C(=O)NS(=O)(=O)CCC(F)(F)F)cc4)CC3)c(CC)c2)c1` [B2N050-01, 4-[4-[[4-(5-Ethoxypyridin-3-yl)-2-ethylphenyl]methyl]piperazin-1-yl]-N-(3,3,3-trifluoropropylsulfonyl)benzamide], for the setting “n = 1”, the “ASMS ratio (%)” value was 0.0%.

As for `CCOc1cccc(-c2ccc(CN3CCN(c4ccc(C(=O)NS(=O)(=O)CCC(F)(F)F)cc4)CC3)cc2F)c1` [B2N051-01, 4-[4-[[4-(3-Ethoxyphenyl)-3-fluorophenyl]methyl]piperazin-1-yl]-N-(3,3,3-trifluoropropylsulfonyl)benzamide], the “ASMS ratio (%)” value reads like this: (n = 1) 0.0%; (n = 2) 0.0%.

On to `CCOc1cncc(-c2ccc(CN3CCN(c4ccc(C(=O)NS(=O)(=O)CCC(F)(F)F)cc4)CC3)cc2F)c1` [B2N052-01, 4-[4-[[4-(5-Ethoxypyridin-3-yl)-3-fluorophenyl]methyl]piperazin-1-yl]-N-(3,3,3-trifluoropropylsulfonyl)benzamide], for which the “ASMS ratio (%)” value is listed as 0.0% (n = 1) and −0.5% (n = 2).

With `CCOc1cccc(-c2ccc(CN3CCN(c4ccc(C(=O)NS(=O)(=O)CCC(F)(F)F)cc4)CC3)c(OC)c2)c1` [B2N053-01, 4-[4-[[4-(3-Ethoxyphenyl)-2-methoxyphenyl]methyl]piperazin-1-yl]-N-(3,3,3-trifluoropropylsulfonyl)benzamide], the “ASMS ratio (%)” value is reported as 0.0% (n = 1) and 1.4% (n = 2).

With `CCOc1cncc(-c2ccc(CN3CCN(c4ccc(C(=O)NS(=O)(=O)CCC(F)(F)F)cc4)CC3)c(OC)c2)c1` [B2N054-01, 4-[4-[[4-(5-Ethoxypyridin-3-yl)-2-methoxyphenyl]methyl]piperazin-1-yl]-N-(3,3,3-trifluoropropylsulfonyl)benzamide], the “ASMS ratio (%)” value was 0.0% (n = 1) and 0.0% (n = 2).

Regarding `CCOc1cccc(-c2cc(CN3CCN(c4ccc(C(=O)NS(=O)(=O)CCC(F)(F)F)cc4)CC3)cc(OCC)c2)c1` [B2N055-01, 4-[4-[[3-Ethoxy-5-(3-ethoxyphenyl)phenyl]methyl]piperazin-1-yl]-N-(3,3,3-trifluoropropylsulfonyl)benzamide], the “ASMS ratio (%)” value (n = 1) worked out at 0.0% and the “ASMS ratio (%)” value (n = 2) is recorded as 0.0%.

Regarding `CCOc1cncc(-c2cc(CN3CCN(c4ccc(C(=O)NS(=O)(=O)CCC(F)(F)F)cc4)CC3)cc(OCC)c2)c1` [B2N056-01], the “ASMS ratio (%)” value by setting is: (n = 1) 0.0%; (n = 2) 0.0%.

Turning to `CCOc1cccc(-c2cc(CN3CCN(c4ccc(C(=O)NS(=O)(=O)CCC(F)(F)F)cc4)CC3)cc(OC(C)C)c2)c1` [B2N057-01, 4-[4-[[3-(3-Ethoxyphenyl)-5-propan-2-yloxyphenyl]methyl]piperazin-1-yl]-N-(3,3,3-trifluoropropylsulfonyl)benzamide], the “ASMS ratio (%)” value (n = 1) stood at 0.0% and the “ASMS ratio (%)” value (n = 2) is listed as −1.8%.

Turning to `CCOc1cncc(-c2cc(CN3CCN(c4ccc(C(=O)NS(=O)(=O)CCC(F)(F)F)cc4)CC3)cc(OC(C)C)c2)c1` [B2N058-01, 4-[4-[[3-(5-Ethoxypyridin-3-yl)-5-propan-2-yloxyphenyl]methyl]piperazin-1-yl]-N-(3,3,3-trifluoropropylsulfonyl)benzamide], the “ASMS ratio (%)” value stood at 0.0% (n = 1) and 0.0% (n = 2).

Take `CCOc1cccc(-c2cc(OC)c(CN3CCN(c4ccc(C(=O)NS(=O)(=O)CCC(F)(F)F)cc4)CC3)c(OC)c2)c1` [B2N059-01, 4-[4-[[4-(3-Ethoxyphenyl)-2,6-dimethoxyphenyl]methyl]piperazin-1-yl]-N-(3,3,3-trifluoropropylsulfonyl)benzamide]: the “ASMS ratio (%)” value (n = 1) was determined as 0.0% and the “ASMS ratio (%)” value (n = 2) is given as 0.0%.

Regarding `CCOc1cncc(-c2cc(OC)c(CN3CCN(c4ccc(C(=O)NS(=O)(=O)CCC(F)(F)F)cc4)CC3)c(OC)c2)c1` [B2N060-01, 4-[4-[[4-(5-Ethoxypyridin-3-yl)-2,6-dimethoxyphenyl]methyl]piperazin-1-yl]-N-(3,3,3-trifluoropropylsulfonyl)benzamide], the “ASMS ratio (%)” value runs as follows: (n = 1) 0.0%; (n = 2) 0.0%.

`CCOc1cccc(-c2cc(CN3CCN(c4ccc(C(=O)NS(=O)(=O)CCC(F)(F)F)cc4)CC3)cc(C(F)(F)F)c2)c1` [B2N061-01]: the “ASMS ratio (%)” value was 0.0% (n = 1) and 0.0% (n = 2).

With `CCOc1cncc(-c2cc(CN3CCN(c4ccc(C(=O)NS(=O)(=O)CCC(F)(F)F)cc4)CC3)cc(C(F)(F)F)c2)c1` [B2N062-01, 4-[4-[[3-(5-Ethoxypyridin-3-yl)-5-(trifluoromethyl)phenyl]methyl]piperazin-1-yl]-N-(3,3,3-trifluoropropylsulfonyl)benzamide], the “ASMS ratio (%)” value was 0.0% (n = 1) and 0.0% (n = 2).

The record behind these values is patent US20240132431A1, “METHOD FOR ALKYLATING ACIDIC FUNCTIONAL GROUP” (Chugai Seiyaku Kabushiki Kaisha, priority 2021, published 2024).
